According to ChEMBL document CHEMBL4196023, “Cyclic peptide inhibitors of lysine-specific demethylase 1 with improved potency identified by alanine scanning mutagenesis” (Eur J Med Chem, 2018):
Positions of bridges follow the written chain, without caps; N, C: chain ends. Residues, ends and D or L forms follow the SMILES beside them. *: point of attachment. Stearoyl = CCCCCCCCCCCCCCCCCC(=O)*

Tests used:
Format in all cases: functional, cell-based
[1] = test system: MCF7; test: Antiproliferative activity against human MCF7 cells after 72 hrs by MTS assay; conditions: MCF7, 72 h
[2] = test system: Calu-6; test: Antiproliferative activity against human Calu6 cells after 72 hrs by MTS assay; conditions: Calu-6, 72 h
[3] = test system: K562; test: Antiproliferative activity against human K562 cells after 72 hrs by MTS assay; conditions: K562, 72 h

## CCCCCCCCCCCCCCCCCC(=O)NCCCC[C@H](NC(=O)[C@H](C)NC(=O)[C@H](CC(C)C)NC(=O)[C@H](CCC(N)=O)NC(=O)[C@H](CCCCN)NC(=O)[C@H](CCCNC(=N)N)NC(=O)[C@@H]1CCCN1C(=O)[C@H](C)NC(=O)[C@H](CCCCN)NC(=O)CNC(=O)CNC(=O)[C@@H](NC(=O)[C@@H]1CCC(=O)NCCCC[C@H](NC(=O)[C@H](CCSC)NC(=O)[C@H](C)NC(=O)[C@H](CCCNC(=N)N)NC(=O)[C@H](C)N)C(=O)N[C@@H]([C@@H](C)O)C(=O)N[C@@H](C)C(=O)N[C@@H](CCCNC(=N)N)C(=O)N[C@@H](CCCCN)C(=O)N1)[C@@H](C)O)C(N)=O (H-ARAMKTARKETGGKAPRKQLAK(Stearoyl)-NH2; lactam 5-10)
[1]
  IC50: 4.6 µM
[2]
  IC50: 10.1 µM

## CSCC[C@H](NC(=O)[C@@H](NC(=O)[C@H](CCCNC(=N)N)NC(=O)[C@H](C)N)[C@@H](C)O)C(=O)N[C@H]1CCCCNC(=O)CC[C@@H](C(=O)N[C@H](C(=O)N[C@@H](C)C(=O)NCC(=O)N[C@@H](CCCCN)C(=O)N[C@@H](C)C(=O)N2CCC[C@H]2C(=O)N[C@@H](CCCNC(=N)N)C(=O)N[C@@H](CCCCN)C(=O)N[C@@H](CCC(N)=O)C(=O)N[C@@H](CC(C)C)C(=O)N[C@@H](C)C(N)=O)[C@@H](C)O)NC(=O)[C@H](CCCCN)NC(=O)[C@H](CCCNC(=N)N)NC(=O)[C@H](C)NC(=O)[C@H]([C@@H](C)O)NC1=O (H-ARTMKTARKETAGKAPRKQLA-NH2; lactam 5-10)
[1]
  IC50: 1010 µM
[2]
  IC50: 766 µM
[3]
  IC50: 42 µM

## CC(C)C[C@H](NC(=O)[C@H](CCC(N)=O)NC(=O)[C@H](CCCCN)NC(=O)[C@H](CCCNC(=N)N)NC(=O)[C@@H]1CCCN1C(=O)[C@H](C)NC(=O)[C@H](CCCCN)NC(=O)CNC(=O)CNC(=O)[C@@H](NC(=O)[C@@H]1CCC(=O)NCCCC[C@H](NC(=O)[C@H](C)NC(=O)[C@@H](NC(=O)[C@H](CCCNC(=N)N)NC(=O)[C@H](C)N)[C@@H](C)O)C(=O)N[C@@H]([C@@H](C)O)C(=O)N[C@@H](C)C(=O)N[C@@H](CCCNC(=N)N)C(=O)N[C@@H](CCCCN)C(=O)N1)[C@@H](C)O)C(=O)N[C@@H](C)C(N)=O (H-ARTAKTARKETGGKAPRKQLA-NH2; lactam 5-10)
[1]
  IC50: 1240 µM
[2]
  IC50: 956 µM
[3]
  IC50: 139 µM

## CSCC[C@H](NC(=O)[C@@H](NC(=O)[C@H](CCCNC(=N)N)NC(=O)[C@H](C)N)[C@@H](C)O)C(=O)N[C@H]1CCCCNC(=O)CC[C@@H](C(=O)N[C@H](C(=O)NCC(=O)NCC(=O)N[C@@H](CCCCN)C(=O)N[C@@H](C)C(=O)N[C@@H](C)C(=O)N[C@@H](CCCNC(=N)N)C(=O)N[C@@H](CCCCN)C(=O)N[C@@H](CCC(N)=O)C(=O)N[C@@H](CC(C)C)C(=O)N[C@@H](C)C(N)=O)[C@@H](C)O)NC(=O)[C@H](CCCCN)NC(=O)[C@H](CCCNC(=N)N)NC(=O)[C@H](C)NC(=O)[C@H]([C@@H](C)O)NC1=O (H-ARTMKTARKETGGKAARKQLA-NH2; lactam 5-10)
[1]
  IC50: 385 µM
[2]
  IC50: 409 µM
[3]
  IC50: 35.6 µM

## CCCCCCCCCCCCCCCCCC(=O)NCCCC[C@H](NC(=O)[C@H](C)NC(=O)[C@H](CC(C)C)NC(=O)[C@H](CCC(N)=O)NC(=O)[C@H](CCCCN)NC(=O)[C@H](CCCNC(=N)N)NC(=O)[C@@H]1CCCN1C(=O)[C@H](C)NC(=O)[C@H](CCCCN)NC(=O)CNC(=O)CNC(=O)[C@@H](NC(=O)[C@@H]1CCC(=O)NCCCC[C@H](NC(=O)[C@H](CCSC)NC(=O)[C@@H](NC(=O)[C@H](CCCNC(=N)N)NC(=O)[C@H](C)N)[C@@H](C)O)C(=O)N[C@@H]([C@@H](C)O)C(=O)N[C@@H](C)C(=O)N[C@@H](CCCNC(=N)N)C(=O)N[C@@H](CCCCN)C(=O)N1)[C@@H](C)O)C(N)=O
[1]
  IC50: 4.4 µM
[2]
  IC50: 7.9 µM
